# Experimental data: patent US7354917B2, “Oxabispidine compounds and their use in the treatment of cardiac arrhythmias” (AstraZeneca AB, priority 2004, dated 2008)
# Structures can show the parent of a compound that is named as a salt.
# Molecular target: T1, HERG channel (Homo sapiens, UniProt Q12809)
# T1 construct: expressed in transfected cells
# Assay: Test B: Rb+-efflux assay for detection of HERG channel blockers
# Format: cell-based
# Details: depolarisation-induced Rb+-efflux from Chinese hamster ovary cells stably expressing the HERG-channel; read-out: pIC50 for HERG channel blockade (converted)
# Procedure: Rb^+-Efflux Assay for Detection of HERG Channel Blockers
# The human ether-a-go-go related gene (HERG) encodes the voltage-gated K^+ channel underlying the cardiac rapid delayed rectifier current IKr. The IC50 value for HERG channel blockade was determined using a high throughput functional assay based on depolarisation-induced Rb^+-efflux from Chinese hamster ovary cells stably expressing the HERG-channel.
# Cells were grown in Ham F12 (Life Technologies 31765-027) supplemented with 10% FBS and 0.6 mg/mL hygromycin B and were routinely passaged twice-weekly. For experimental studies, cells were plated at a density of 15,000 cells/well in Falcon, 384-well tissue culture-treated black-walled clear-bottomed plates and were thereafter incubated overnight at 37° C. in a cell culture incubator.
# Following incubating overnight, cell plates were washed and a Rb^+-Load buffer (a physiological buffer containing Rb^+) was added. Cell plates were then incubated for 3 hours and were thereafter washed. Following this wash, the test compounds were added. The cell plates were then incubated for another 10 minutes and, following this incubation period, external K^+ concentration was increased in order to depolarize the cells and activate HERG channels. After a ten minute exposure period to the increased K^+ concentration, supernatants were transferred to new microplates for subsequent determination of Rb^+ content, using Atomic Absorption Spectrometry analysis.
# The basal Rb^+ efflux (content of Rb^+ (mg/L) in supernatants of wells receiving only wash buffer) was defined as 100% inhibition and the stimulated Rb^+efflux (content of Rb^+ (mg/L) in supernatants of wells exposed only to increased external potassium concentration) was defined as 0% inhibition.
# Compound activity was expressed as: […]
# A: Rb^+ content in wells receiving test compound+increased external K^+.
# C: Stimulated Rb^+ efflux.
# T1 sequence (Q12809 whole entry): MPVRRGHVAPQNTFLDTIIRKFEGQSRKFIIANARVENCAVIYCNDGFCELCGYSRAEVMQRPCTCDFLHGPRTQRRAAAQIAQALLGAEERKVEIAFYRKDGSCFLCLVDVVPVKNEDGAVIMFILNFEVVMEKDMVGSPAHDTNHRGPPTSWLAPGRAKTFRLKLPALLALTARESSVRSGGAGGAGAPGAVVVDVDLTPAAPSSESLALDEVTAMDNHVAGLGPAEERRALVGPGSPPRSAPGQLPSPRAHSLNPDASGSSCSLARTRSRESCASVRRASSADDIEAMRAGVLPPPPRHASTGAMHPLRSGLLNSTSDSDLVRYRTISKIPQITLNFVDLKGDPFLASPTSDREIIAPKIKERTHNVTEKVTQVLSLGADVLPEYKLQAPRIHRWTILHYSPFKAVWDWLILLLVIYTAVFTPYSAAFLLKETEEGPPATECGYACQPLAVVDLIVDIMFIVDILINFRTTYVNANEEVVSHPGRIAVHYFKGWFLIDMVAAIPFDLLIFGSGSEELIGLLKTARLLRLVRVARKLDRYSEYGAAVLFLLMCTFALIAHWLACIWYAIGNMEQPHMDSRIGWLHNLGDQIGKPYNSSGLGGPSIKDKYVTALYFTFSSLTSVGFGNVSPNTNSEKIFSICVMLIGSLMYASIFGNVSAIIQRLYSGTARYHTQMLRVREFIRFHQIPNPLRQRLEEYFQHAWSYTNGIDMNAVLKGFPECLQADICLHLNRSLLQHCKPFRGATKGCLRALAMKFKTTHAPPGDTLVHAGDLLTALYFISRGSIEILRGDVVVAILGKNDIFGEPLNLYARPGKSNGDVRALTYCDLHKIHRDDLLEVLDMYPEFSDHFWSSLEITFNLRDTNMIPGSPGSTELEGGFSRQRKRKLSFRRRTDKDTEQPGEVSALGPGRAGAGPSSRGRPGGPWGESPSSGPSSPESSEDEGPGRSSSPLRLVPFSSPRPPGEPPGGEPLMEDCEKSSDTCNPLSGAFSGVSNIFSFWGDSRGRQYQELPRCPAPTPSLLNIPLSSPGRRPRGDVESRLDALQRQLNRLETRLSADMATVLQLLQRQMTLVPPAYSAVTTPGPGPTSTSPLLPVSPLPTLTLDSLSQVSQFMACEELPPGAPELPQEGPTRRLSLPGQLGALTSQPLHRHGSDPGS
row,SMILES,IC50 [nM]
1,"CN(C)C(=O)N(CCOc1ccc(C#N)cc1)CCN1CC2CN(Cc3ccc(OC(F)F)cc3)CC(C1)O2 [9 (xlvi), N-[2-(4-cyanophenoxy)ethyl]-N-(2-{7-[4-(difluoromethoxy)-benzyl]-9-oxa-3,7-diazabicyclo[3.3.1]non-3-yl}ethyl)-N′,N′-dimethylurea]",4170
2,"CS(=O)(=O)N(CCOc1ccc(C#N)cc1)CCN1CC2CN(Cc3ccccc3)CC(C1)O2 [Example 2, N-[2-(7-Benzyl-9-oxa-3,7-diazabicyclo[3.3.1]non-3-yl)ethyl]-N-[2-(4-cyanophenoxy)ethyl]methanesulfonamide, tartaric acid salt]",2820
3,"CS(=O)(=O)N(CCOc1ccc(C#N)cc1)CCN1CC2CN(Cc3ccc(F)cc3)CC(C1)O2 [Example 3, N-[2-(4-Cyanophenoxy)ethyl]-N-{2-[7-(4-fluorobenzyl)-9-oxa-3,7-diaza-bicyclo[3.3.1]non-3-yl]ethyl}methanesulfonamide]",1580
